# In patent US20250268873A1, “COMBINATION OF DUAL ATM AND DNA-PK INHIBITORS AND IMMUNOTHERAPEUTIC AGENTS FOR USE IN CANCER THERAPY” (XRAD THERAPEUTICS, INC., priority 2021, published 2025):
# Key:
# A549 cells = test: Clonogenic Survival Assay in A549 cells; assay type: cell-based, human; settings: for Fold 2 Gy / Fold 4 Gy: vs DMSO; for % survival @ 0 Gy w/out IR: no IR
# Protocol: Human cancer cell lines, including MCF-7 human breast carcinoma cell line and A549 human lung carcinoma cell line, and HCT116 p53 wild-type and HCT116 p53−/− cell lines were obtained from ATCC. MCF7 and HCT116 cells were cultured in Dulbecco's modified Eagle's medium (DMEM (Gibco #11995-065). MDA-MB-231 human triple negative breast cancer cell line and FADU, human head and neck squamous cell carcinoma line, were obtained from Charles River Laboratories (Morrisville, NC). MDA-MB-231 and A549 cells were cultured in RPMI 1640 medium (Gibco, 11875-093). FADU cells were cultured in Minimum Essential Medium α (MEM α) (Gibco, 12571-063) supplemented with 1 mM Sodium Pyruvate (Gibco, 11360-070), 1×MEM Non-Essential Amino Acids (Gibco, 11140-050). All cell lines were supplemented with 10% fetal bovine serum (FBS) (Corning, 35-010-CV) and 1× Antibiotic-Antimycotic (Gibco #15240-062) and were grown at 37° C. in 5% CO2. All cell lines were authenticated by short tandem repeat profiling and tested negative for mycoplasma.
# This assay was performed with Compound 569 as an exemplary Formula (I) compound. Cells were plated in 6-well plates at different densities: 250 cells for no IR control, 5000 cells for 2 Gy of IR and 10000 cells for 4 Gy of IR and cultured overnight. The next day, MCF7 cells were preincubated with compound 569 at 100, 250, 500, or 1000 nM or DMSO for 30 min before being exposed to increasing doses of IR (0, 2, or 4 Gy). The A549 cells were incubated with Compound 569 at 500 or 1000 nM or with DMSO for 30 min before being exposed to increasing doses of IR (0, 2, or 4 Gy). After IR, cells were continuously incubated with DMSO or compound 569 for 5 h before the culture medium was removed and cells were washed with PBS. Cells were cultured in complete medium in the absence of inhibitor for 9 days. Then cells were stained (PBS, […], 0.1% crystal violet) rinsed with water and dried.
# TBK1 = test: Immunoblot of TBK1 phosphorylation in HCT116 cells; assay type: cell-based, human; settings: HCT116 p53 wild-type and p53−/− cells; 1 μM single agents, combination 0.5 or 1 micromolar each
# Source text: Antibodies recognizing phosphorylated/activated ATM (S1981, #ab81292) and DNA-PKcs (S2056, #ab18192) were purchased from Abcam Biotechnology (Cambridge, MA). Antibodies to ATM (#A1106) and DNA-PKcs (#ab1832) were from Sigma and Abcam, respectively. Phospho-KAP1 (S824, #A300-767A) and KAP1 (A700-014) antibodies were from Bethyl Labs (Montgomery, TX). Phospho-TBK1 (#5483), cGAS (#15102), and pSTING (S366, #19781S) antibodies were from Cell Signaling Technology (CST) (Danvers, MA). STING (PA5-23381) antibodies were from ThermoFisher Scientific (Waltham, MA), and actin (#A5316) antibodies were from Sigma. All antibodies were diluted 1:1000 with the exception of actin which was diluted 1:3000 in 1×TBST (1×TBS-10×TBS, (Corning, 46-012-CM), 0.05% Tween-20 (P7949) Sigma and 1% BSA. Secondary antibodies used were (a) Li-Cor method-Goat anti-Rabbit (926-3221) and Goat anti-Mouse (926-68020) Li-Cor (b) ECL method: Anti-rabbit IgG, HRP-linked (#7074S), CST.
# Cells were pretreated with Compound 569 at 20, 100, 500, or 1000 nM or DMSO for 30 min and then irradiated with 0 or 10 Gy (XRAD 160, Precision X Ray) as shown in FIG. 1. In FIG. 3, cells were pretreated with Compound 569 at 1 μM, ATMi (AZD0156) at 1 μM, DNA-PKi (peposertib) at 1 μM as single agents or DMSO or with ATMi and DNA-PKi in combination at 0.5 micromolar each or at 1 micromolar each for 30 min and then irradiated with 0 or 10 Gy (XRAD 160, Precision X Ray) as shown in FIG. 1. One hour after IR, cells were lysed in RIPA buffer ([…], pH 8.0, 150 mM NaCl, 0.1% SDS, 0.5% sodium deoxycholate, 1% IGEPAL® CA-630 (Sigma, 18896) for 20 min at 4° C. in the presence of protease and phosphatase inhibitor cocktails (Roche, #04693159001 & #04906837001). Cell lysates were centrifuged at 13,200 g for 10 min at 4° C. and supernatants were analyzed for protein content using BCA assay (Pierce™ BCA Protein Assay Kit, cat #23227, ThermoFisher Waltham, MA 02451) and equal amounts of protein/lane were used for subsequent immunoblot analyses. Proteins were denatured by adding NuPAGE LSD Sample Buffer [4×] […]
compound,measurement,setting,value
"CC(C)NCCOc1ncc(-c2cc3c4c(cnc3cc2F)N(C)C(=O)C42CCC2)cc1NS(C)(=O)=O [Compound 569, N-(5-(7′-Fluoro-3′-methyl-2′-oxo-2′,3′-dihydrospiro[cyclobutane-1,1′-pyrrolo[2,3-c]quinolin]-8′-yl)-2-(2-(isopropylamino)ethoxy)pyridin-3-yl)methanesulfonamide]",cellular toxicity in the absence of IR,A549 cells; 5-h exposure,without evidence of cellular toxicity
same,radiosensitization,"A549 cells; 5-h exposure, 500 and 1000 nM, 0, 2, 4 Gy",significant degree of radiosensitization
same,Clonogenic survival ratio 0 Gy,A549 cells; 569 500 nM,1.000
same,Clonogenic survival ratio 2 Gy,A549 cells; 569 500 nM,0.0780
same,Fold 2 Gy,A549 cells; 569 500 nM,9.3
same,Clonogenic survival ratio 4 Gy,A549 cells; 569 500 nM,0.0044
same,Fold 4 Gy,A549 cells; 569 500 nM,64
same,% survival @ 0 Gy w/out IR,A549 cells; 569 500 nM,110%
same,Clonogenic survival ratio 0 Gy,A549 cells; 569 1000 nM,1.000
same,Clonogenic survival ratio 2 Gy,A549 cells; 569 1000 nM,0.0520
same,Fold 2 Gy,A549 cells; 569 1000 nM,14
same,Clonogenic survival ratio 4 Gy,A549 cells; 569 1000 nM,0.0015
same,Fold 4 Gy,A549 cells; 569 1000 nM,188
same,% survival @ 0 Gy w/out IR,A549 cells; 569 1000 nM,103%
same,phosphorylation of TBK1,TBK1,more potent activator of TBK1 phosphorylation than either of the single target kinase inhibitors
